From patent US20090304692A1, “TRIAZINE COMPOUNDS AS PI3 KINASE AND MTOR INHIBITORS” (Wyeth, priority 2008, published 2009) come the findings set out here.

The target of one test is Human mTOR (FLAG-TOR) (Homo sapiens, UniProt P42345). Kind of test: mTOR kinase assay (DELFIA format, purified enzyme). Type of test: biochemical. Particulars: read-out: IC50 mTOR.
The subject of test [1] is human breast MDA-MB-361 tumor cell line. The test is described as follows: In vitro cell culture growth assay (MTS), MDA-MB-361. The test is classed as cell-based. Particulars: Homo sapiens, MTS cell growth assay, three days after drug treatment, read-out: IC50 MDA-MB-361.
For test [2], the system named is human prostate PC3-mm2 tumor cell line. The test is described as follows: In vitro cell culture growth assay (MTS), PC3-mm2. The test is classed as cell-based. To be noted: Homo sapiens, PC3MM2, 72 h, MTS cell growth assay, three days after drug treatment, read-out: IC50 PC3-mm2.
The target in another test is PI3K-α (Homo sapiens, UniProt P42336). Kind of test: PI3K-alpha fluorescence polarization assay. Particulars: read-out: IC50 PI3Kα.
Sequence of PI3K-α (P42336 whole entry, species assumed): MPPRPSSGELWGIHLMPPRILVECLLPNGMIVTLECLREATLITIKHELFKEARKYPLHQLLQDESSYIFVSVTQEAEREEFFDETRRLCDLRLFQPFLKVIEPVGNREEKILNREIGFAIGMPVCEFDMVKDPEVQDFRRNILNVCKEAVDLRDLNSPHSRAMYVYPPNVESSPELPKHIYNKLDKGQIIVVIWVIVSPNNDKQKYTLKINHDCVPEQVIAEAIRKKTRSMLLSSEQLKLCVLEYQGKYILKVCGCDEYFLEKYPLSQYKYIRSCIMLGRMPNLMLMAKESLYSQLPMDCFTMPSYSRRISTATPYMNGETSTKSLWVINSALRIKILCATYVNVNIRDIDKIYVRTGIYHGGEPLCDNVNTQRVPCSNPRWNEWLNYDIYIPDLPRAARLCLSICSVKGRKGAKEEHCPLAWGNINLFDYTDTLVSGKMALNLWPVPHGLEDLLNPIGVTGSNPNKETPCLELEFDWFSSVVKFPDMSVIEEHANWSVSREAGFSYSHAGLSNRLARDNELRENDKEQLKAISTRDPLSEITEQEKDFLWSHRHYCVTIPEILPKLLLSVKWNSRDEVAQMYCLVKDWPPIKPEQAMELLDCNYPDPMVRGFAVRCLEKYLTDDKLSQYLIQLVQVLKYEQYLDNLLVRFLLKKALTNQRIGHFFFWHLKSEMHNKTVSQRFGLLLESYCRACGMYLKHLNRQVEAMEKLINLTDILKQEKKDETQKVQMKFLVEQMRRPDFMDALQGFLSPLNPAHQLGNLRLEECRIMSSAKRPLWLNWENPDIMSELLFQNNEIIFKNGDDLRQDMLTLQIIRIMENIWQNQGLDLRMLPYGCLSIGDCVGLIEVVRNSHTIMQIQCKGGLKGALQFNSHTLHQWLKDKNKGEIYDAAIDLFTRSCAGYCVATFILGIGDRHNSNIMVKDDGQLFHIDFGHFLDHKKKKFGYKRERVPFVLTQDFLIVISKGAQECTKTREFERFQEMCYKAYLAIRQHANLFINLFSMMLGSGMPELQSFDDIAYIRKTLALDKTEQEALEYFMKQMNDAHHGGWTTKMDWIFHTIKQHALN
Sequence of PI3K-α (P27986 whole entry partner, species assumed): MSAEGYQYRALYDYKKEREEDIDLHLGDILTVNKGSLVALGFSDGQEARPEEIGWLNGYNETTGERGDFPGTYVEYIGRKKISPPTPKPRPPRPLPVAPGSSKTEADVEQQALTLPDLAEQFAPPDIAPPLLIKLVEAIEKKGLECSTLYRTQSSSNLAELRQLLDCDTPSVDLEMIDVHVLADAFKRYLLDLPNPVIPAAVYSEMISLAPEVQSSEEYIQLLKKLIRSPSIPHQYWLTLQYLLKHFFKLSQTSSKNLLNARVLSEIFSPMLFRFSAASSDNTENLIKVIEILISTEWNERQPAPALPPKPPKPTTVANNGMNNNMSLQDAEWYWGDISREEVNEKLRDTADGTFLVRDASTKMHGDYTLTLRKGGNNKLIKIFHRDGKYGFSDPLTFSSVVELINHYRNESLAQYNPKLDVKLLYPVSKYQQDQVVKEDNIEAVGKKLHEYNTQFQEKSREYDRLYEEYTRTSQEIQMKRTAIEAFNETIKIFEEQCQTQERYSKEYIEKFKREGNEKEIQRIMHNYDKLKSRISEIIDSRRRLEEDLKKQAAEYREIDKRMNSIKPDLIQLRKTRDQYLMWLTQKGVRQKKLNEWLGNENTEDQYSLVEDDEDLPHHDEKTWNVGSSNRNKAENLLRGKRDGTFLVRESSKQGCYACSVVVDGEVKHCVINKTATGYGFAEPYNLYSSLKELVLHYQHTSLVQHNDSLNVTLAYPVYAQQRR
The target in a further test is PI3K-γ (Homo sapiens, UniProt P48736). Kind of test: PI3K-gamma fluorescence polarization assay. Particulars: read-out: IC50 PI3Kγ.
Sequence of PI3K-γ (P48736 whole entry, species assumed): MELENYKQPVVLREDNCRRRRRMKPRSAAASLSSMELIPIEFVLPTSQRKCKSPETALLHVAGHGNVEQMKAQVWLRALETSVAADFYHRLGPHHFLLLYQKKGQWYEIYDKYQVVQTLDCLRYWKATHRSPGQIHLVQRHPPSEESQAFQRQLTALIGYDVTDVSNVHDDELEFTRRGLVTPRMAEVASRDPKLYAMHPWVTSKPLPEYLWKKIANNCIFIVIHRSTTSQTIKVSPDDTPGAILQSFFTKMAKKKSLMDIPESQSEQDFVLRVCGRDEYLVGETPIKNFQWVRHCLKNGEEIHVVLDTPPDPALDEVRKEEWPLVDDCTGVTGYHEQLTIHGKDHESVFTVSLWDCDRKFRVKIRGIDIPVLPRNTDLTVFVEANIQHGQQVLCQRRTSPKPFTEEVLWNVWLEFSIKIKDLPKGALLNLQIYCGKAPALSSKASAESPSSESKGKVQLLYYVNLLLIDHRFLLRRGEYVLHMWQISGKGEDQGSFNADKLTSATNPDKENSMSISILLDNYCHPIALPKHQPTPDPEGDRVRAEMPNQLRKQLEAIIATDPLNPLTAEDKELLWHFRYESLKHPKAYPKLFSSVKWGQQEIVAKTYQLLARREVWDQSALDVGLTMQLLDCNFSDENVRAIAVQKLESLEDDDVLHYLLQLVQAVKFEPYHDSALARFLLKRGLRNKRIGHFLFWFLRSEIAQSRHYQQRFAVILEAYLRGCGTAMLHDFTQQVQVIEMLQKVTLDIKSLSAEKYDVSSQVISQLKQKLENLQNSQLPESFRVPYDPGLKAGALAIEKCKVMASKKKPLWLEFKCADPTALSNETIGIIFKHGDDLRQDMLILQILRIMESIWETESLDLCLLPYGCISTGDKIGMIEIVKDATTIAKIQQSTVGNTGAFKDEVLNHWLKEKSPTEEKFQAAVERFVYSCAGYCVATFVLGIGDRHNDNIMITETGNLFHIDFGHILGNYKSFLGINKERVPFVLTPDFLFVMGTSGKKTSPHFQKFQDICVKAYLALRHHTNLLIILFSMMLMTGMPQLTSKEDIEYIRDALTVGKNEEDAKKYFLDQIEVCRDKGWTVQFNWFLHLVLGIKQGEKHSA
The mark [3] stands for this setting: MDA-MB-361, 72 h, MDA-MB-361 cells.

Values joined by “and” are separate entries in the source; they are usually repeats but may differ in a detail not shown here. Equal values may be shown once. Read-outs that look alike come from different tables or passages of the source.

Sequence of Human mTOR (FLAG-TOR) (P42345 1360-2549 limits assumed): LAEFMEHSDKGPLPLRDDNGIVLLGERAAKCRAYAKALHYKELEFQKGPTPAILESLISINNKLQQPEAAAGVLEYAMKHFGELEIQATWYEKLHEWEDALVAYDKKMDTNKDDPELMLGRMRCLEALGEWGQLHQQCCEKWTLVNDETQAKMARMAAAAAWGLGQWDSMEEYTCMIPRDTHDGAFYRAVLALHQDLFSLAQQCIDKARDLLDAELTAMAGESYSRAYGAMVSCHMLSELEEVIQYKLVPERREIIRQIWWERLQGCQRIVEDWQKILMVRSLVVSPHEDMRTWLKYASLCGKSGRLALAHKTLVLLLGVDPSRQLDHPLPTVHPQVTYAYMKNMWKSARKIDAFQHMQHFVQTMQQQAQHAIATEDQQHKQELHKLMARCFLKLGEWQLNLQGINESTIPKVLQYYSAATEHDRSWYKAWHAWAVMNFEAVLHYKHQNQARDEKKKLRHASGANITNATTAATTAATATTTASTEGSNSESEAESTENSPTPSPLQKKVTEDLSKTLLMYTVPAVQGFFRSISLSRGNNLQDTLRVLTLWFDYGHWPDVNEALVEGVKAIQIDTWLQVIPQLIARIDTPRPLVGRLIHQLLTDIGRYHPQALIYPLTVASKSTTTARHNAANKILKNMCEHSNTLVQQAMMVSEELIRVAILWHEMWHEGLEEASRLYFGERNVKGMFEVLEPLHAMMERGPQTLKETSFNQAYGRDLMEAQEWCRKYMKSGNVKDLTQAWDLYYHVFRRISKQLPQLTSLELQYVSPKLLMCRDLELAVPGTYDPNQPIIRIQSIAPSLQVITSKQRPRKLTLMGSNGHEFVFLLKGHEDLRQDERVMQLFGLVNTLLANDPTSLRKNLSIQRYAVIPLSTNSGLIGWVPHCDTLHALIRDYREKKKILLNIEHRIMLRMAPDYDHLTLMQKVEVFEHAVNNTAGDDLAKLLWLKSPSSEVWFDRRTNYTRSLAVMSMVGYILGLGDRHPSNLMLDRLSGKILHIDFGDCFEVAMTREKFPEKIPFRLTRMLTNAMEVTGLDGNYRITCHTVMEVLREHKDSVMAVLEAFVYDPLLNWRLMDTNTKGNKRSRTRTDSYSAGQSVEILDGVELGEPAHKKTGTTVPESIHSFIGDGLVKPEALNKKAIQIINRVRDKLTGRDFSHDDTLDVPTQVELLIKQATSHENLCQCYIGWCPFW

For the molecule `CCCCc1nc(-c2ccc(NC(=O)Nc3ccc(C(=O)O)cc3)cc2)nc(N2CCOCC2)n1` [Example 184, 4-({[4-(4-butyl-6-morpholin-4-yl-1,3,5-triazin-2-yl)phenyl]carbamoyl}amino)benzoic acid], the IC50 at Human mTOR (FLAG-TOR) was 4 nM; in test [1] (MDA-MB-361, 72 h), 1250 nM; in test [2] it was 2090 nM; on PI3K-α, 30 nM; on PI3K-γ, 143 nM.

On to `CCCCc1nc(-c2ccc(NC(=O)Nc3ccncc3)cc2)nc(N2CCOCC2)n1` [Example 186, 1-[4-(4-butyl-6-morpholin-4-yl-1,3,5-triazin-2-yl)phenyl]-3-pyridin-4-ylurea], for which the IC50 stood at 6 nM on Human mTOR (FLAG-TOR); 473 nM in test [1] (MDA-MB-361, 72 h); 703 nM in test [2]; 28 nM at PI3K-α; 221 nM on PI3K-γ.

Consider `O=C(Nc1ccncc1)Nc1ccc(-c2nc(N3CCOCC3)nc(N3C[C@@H]4C[C@H]3CO4)n2)cc1` [Example 189, 1-(4-{4-morpholin-4-yl-6-[(1S,4S)-2-oxa-5-azabicyclo[2.2.1]hept-5-yl]-1,3,5-triazin-2-yl}phenyl)-3-pyridin-4-ylurea], for which the IC50 at Human mTOR (FLAG-TOR) was found to be 28 nM; in test [1] (MDA-MB-361, 72 h) it was 84 nM; in test [2], 99 nM; at PI3K-α, 19 nM; at PI3K-γ, 203 nM.

`C=C(OCC)c1nc(-c2ccc(NC(=O)Nc3ccncc3)cc2)nc(N2CCOCC2)n1` [Example 199, 1-{4-[4-(1-ethoxyvinyl)-6-morpholin-4-yl-1,3,5-triazin-2-yl]phenyl}-3-pyridin-4-ylurea]: the IC50 on Human mTOR (FLAG-TOR) came out at 1 nM; in test [1] (MDA-MB-361, 72 h), 96 nM; in test [2], 93 nM; on PI3K-α, 44 nM; on PI3K-γ, 144 nM.

Regarding `COCCOc1nc(-c2ccc(NC(=O)Nc3ccncc3)cc2)nc(N2CCOCC2)n1` [Example 200, 1-{4-[4-(2-methoxyethoxy)-6-morpholin-4-yl-1,3,5-triazin-2-yl]phenyl}-3-pyridin-4-ylurea], the IC50 was 6.5 nM and 6.45 nM at Human mTOR (FLAG-TOR); 162 nM in test [1] (MDA-MB-361, 72 h); 248 nM in test [2] (PC3-mm2 cells); 248 nM in test [2]; 14 nM at PI3K-α; 15.5 nM on PI3K-α (listed as 714). Moreover, the IC50 was determined as 128 nM on PI3K-γ and 69 nM on PI3K-γ (listed as 714).

Turning to `CC(=O)c1nc(-c2ccc(NC(=O)Nc3ccncc3)cc2)nc(N2CCOCC2)n1` [Example 209, 1-[4-(4-acetyl-6-morpholin-4-yl-1,3,5-triazin-2-yl)phenyl]-3-pyridin-4-ylurea], the IC50 at Human mTOR (FLAG-TOR) turned out to be 9 nM; in test [1] (MDA-MB-361, 72 h), 174 nM; in test [2], 278 nM; on PI3K-α, 24 nM; on PI3K-γ, 99 nM.

On to `COCCOc1nc(-c2ccc(NC(=O)Nc3ccc(C(=O)OC)cc3)cc2)nc(N2CCOCC2)n1` [Example 211, methyl 4-[({4-[4-(2-methoxyethoxy)-6-morpholin-4-yl-1,3,5-triazin-2-yl]phenyl}carbamoyl)amino]benzoate], for which the IC50 was 6 nM at Human mTOR (FLAG-TOR); 254 nM in test [1] (MDA-MB-361, 72 h); 389 nM in test [2] (PC3-mm2 cells); 389 nM in test [2]; 80 nM on PI3K-α; 59.5 nM on PI3K-α (listed as 715). The half-maximal inhibitory concentration (IC50) turned out to be 108 nM at PI3K-γ and 146 nM on PI3K-γ (listed as 715).

`O=C(Nc1ccc(C(=O)O)cc1)Nc1ccc(-c2nc(C3=CCOCC3)nc(N3CCOCC3)n2)cc1` [Example 227, 4-[({4-[4-(3,6-dihydro-2H-pyran-4-yl)-6-morpholin-4-yl-1,3,5-triazin-2-yl]phenyl}carbamoyl)amino]benzoic acid]: the IC50 was determined as 7.3 nM on Human mTOR (FLAG-TOR); 1500 nM in test [1] (MDA-MB-361, 72 h); 4030 nM in test [2]; 23 nM at PI3K-α; 81 nM at PI3K-γ.

For `O=C(Nc1ccncc1)Nc1ccc(-c2nc(CCNc3ccncc3)nc(N3CCOCC3)n2)cc1` [Example 228, 1-(4-{4-morpholin-4-yl-6-[2-(pyridin-4-ylamino)ethyl]-1,3,5-triazin-2-yl}phenyl)-3-pyridin-4-ylurea], the IC50 was 51 nM and 55 nM at Human mTOR (FLAG-TOR); 3920 nM in test [1] (MDA-MB-361, 72 h); 7170 nM in test [2] (PC3-mm2 cells); 7170 nM in test [2]; 46 nM at PI3K-α; 40.5 nM at PI3K-α (listed as 718). The IC50 on PI3K-γ worked out at 280 nM; at PI3K-γ (listed as 718), 210 nM.

`CC(=O)c1ccc(NC(=O)Nc2ccc(-c3nc(N4CCOCC4)nc(N4C5CCC4COC5)n3)cc2)cc1` [Example 230, 1-(4-acetylphenyl)-3-{4-[4-morpholin-4-yl-6-(3-oxa-8-azabicyclo[3.2.1]oct-8-yl)-1,3,5-triazin-2-yl]phenyl}urea]: the IC50 on Human mTOR (FLAG-TOR) was 1.2 nM and 0.15 nM; in test [1] (setting [3]), < 31 nM; in test [2] (PC3-mm2 cells), < 31 nM; on PI3K-α, 22 nM; at PI3K-α (listed as 719), 17.5 nM; on PI3K-γ, 119 nM. Moreover, the IC50 at PI3K-γ (listed as 719) amounted to 96 nM.

With `CCCCc1nc(-c2ccc(NC(=O)Nc3ccc(C(=O)NCCN(C)C)cc3)cc2)nc(N2CCOCC2)n1` [Example 231, 4-({[4-(4-butyl-6-morpholin-4-yl-1,3,5-triazin-2-yl)phenyl]carbamoyl}amino)-N-[2-(dimethylamino)ethyl]benzamide], the IC50 on Human mTOR (FLAG-TOR) was found to be 2.5 nM; in test [1] (MDA-MB-361, 72 h) it was 20 nM; in test [2], 121 nM; on PI3K-α it was 4 nM; on PI3K-γ, 63 nM.

In the case of `CCCCc1nc(-c2ccc(NC(=O)Nc3ccc(C(=O)N4CCN(C)CC4)cc3)cc2)nc(N2CCOCC2)n1` [Example 232, 1-[4-(4-butyl-6-morpholin-4-yl-1,3,5-triazin-2-yl)phenyl]-3-{4-[(4-methylpiperazin-1-yl)carbonyl]phenyl}urea], the half-maximal inhibitory concentration (IC50) on Human mTOR (FLAG-TOR) was determined as 83 nM; in test [1] (MDA-MB-361, 72 h), 38 nM; in test [2], 177 nM; at PI3K-α, 6 nM; on PI3K-γ it was 37 nM.

Take `CCc1nc(-c2ccc(NC(=O)Nc3ccc(C(=O)O)cc3)cc2)nc(N2CCOCC2)n1` [Example 233, 4-({[4-(4-ethyl-6-morpholin-4-yl-1,3,5-triazin-2-yl)phenyl]carbamoyl}amino)benzoic acid]: the IC50 was determined as 7.9 nM at Human mTOR (FLAG-TOR); 1210 nM in test [1] (MDA-MB-361, 72 h); 3340 nM in test [2]; 55 nM at PI3K-α; 121 nM on PI3K-γ.

As to `CCc1nc(-c2ccc(NC(=O)Nc3ccc(C(=O)N4CCN(C)CC4)cc3)cc2)nc(N2CCOCC2)n1` [Example 236, 1-[4-(4-ethyl-6-morpholin-4-yl-1,3,5-triazin-2-yl)phenyl]-3-{4-[(4-methylpiperazin-1-yl)carbonyl]phenyl}urea], the IC50 at Human mTOR (FLAG-TOR) was 11 nM and 9.4 nM; in test [1] (setting [3]), 22.3 nM; in test [1] (MDA-MB-361, 72 h), 22.3 nM; in test [2] (PC3-mm2 cells) it was 67 nM; in test [2], 67 nM; on PI3K-α, 3 nM. The IC50 on PI3K-α (listed as 536) amounted to 1.5 nM; on PI3K-γ, 15 nM; on PI3K-γ (listed as 536) it was 13 nM.

Consider `CCc1nc(-c2ccc(NC(=O)Nc3ccc(C(=O)NCCN(C)C)cc3)cc2)nc(N2CCOCC2)n1` [Example 237, N-[2-(dimethylamino)ethyl]-4-({[4-(4-ethyl-6-morpholin-4-yl-1,3,5-triazin-2-yl)phenyl]carbamoyl}amino)benzamide], for which the IC50 on Human mTOR (FLAG-TOR) worked out at 3 nM; in test [1] (MDA-MB-361, 72 h) it was 28 nM; in test [2], 69 nM; on PI3K-α, 2 nM; on PI3K-γ, 23 nM.

On to `CCc1nc(-c2ccc(NC(=O)Nc3ccc(C(=O)N4CCC(N(C)C)CC4)cc3)cc2)nc(N2CCOCC2)n1` [Example 238, 1-(4-{[4-(dimethylamino)piperidin-1-yl]carbonyl}phenyl)-3-[4-(4-ethyl-6-morpholin-4-yl-1,3,5-triazin-2-yl)phenyl]urea], for which the IC50 at Human mTOR (FLAG-TOR) was found to be 3.6 nM; in test [1] (MDA-MB-361, 72 h), 23 nM; in test [2], 61 nM; on PI3K-α it was 1 nM; on PI3K-γ it was 10 nM.

Take `CCCCc1nc(-c2ccc(NC(=O)Nc3ccc(CO)cc3)cc2)nc(N2CCOCC2)n1` [Example 239, 1-[4-(4-butyl-6-morpholin-4-yl-1,3,5-triazin-2-yl)phenyl]-3-[4-(hydroxymethyl)phenyl]urea]: the IC50 was determined as 3.2 nM at Human mTOR (FLAG-TOR); 184 nM in test [1] (MDA-MB-361, 72 h); 317 nM in test [2]; 11 nM at PI3K-α; 38 nM at PI3K-γ.

`CN(C)CCN(C)C(=O)c1ccc(NC(=O)Nc2ccc(-c3nc(C4=CCOCC4)nc(N4CCOCC4)n3)cc2)cc1` [Example 240, 4-[({4-[4-(3,6-dihydro-2H-pyran-4-yl)-6-morpholin-4-yl-1,3,5-triazin-2-yl]phenyl}carbamoyl)amino]-N-[2-(dimethylamino)ethyl]-N-methylbenzamide]: the IC50 at Human mTOR (FLAG-TOR) was 1.6 nM; in test [1] (72 h, MDA-MB-361 cells), < 21.7 nM; in test [2] (PC3-mm2 cells), 12 nM; in test [2], 12 nM; at PI3K-α, 1 nM; at PI3K-α (listed as 506), 0.3 nM. Also, the IC50 at PI3K-γ amounted to 6 nM; at PI3K-γ (listed as 506), 7 nM.
